Assay results: US11040082B2, “Compositions and methods for treating colorectal cancer” (Georgia State University Research Foundation, Inc., priority 2014, dated 2021)

How the values were obtained:
[1] = tested on: PepT1 expression and colitis in IL-10-/- mice; settings: compared to vehicle-treated; cited from earlier work
[2] = tested on: AOM/DSS-induced colon tumorigenesis; test: AOM/DSS-induced colitis-associated cancer (CAC) model, WT mice, with or without KPV; assay type: in vivo, mouse
Description: (§1) Colonic tumor model: Colon cancer was induced as previously described with some modifications (Greten et al., Cell 118:285-96, 2004). Mice were intraperitoneally injected with AOM (Sigma-Aldrich, St. Louis, Mo.) diluted in PBS (10 mg/kg) and maintained on a regular diet and water for 5 days. The mice were then subjected to two cycles of DSS treatment (MP Biomedicals, Solon, Ohio, USA), with each cycle consisting of 2.5% DSS for 7 days followed by a 14-day recovery period with regular water. Mice were then sacrificed and their colons isolated for further experimentation. Colonic tumors were counted and measured using a dissecting microscope. The total sum of the area of each colon covered by tumor tissue was expressed as the tumor burden index.
(§2) In experiments designed to test the efficacy of KPV (Biopeptide Co. Inc., San Diego, Calif.), the above protocol was slightly modified. Five days after AOM injections (10 mg/kg to WT mice or 15 mg/kg to PepT1-KO mice), the WT and PepT1-KO mice were given 3% DSS with or without KPV for seven days. Following the 7-day treatment, the mice were given normal drinking water for 14 days, then 2.5% DSS (WT) or 3% DSS (PepT1-KO mice) with or without KPV for seven days. Following the 7-day treatment, the mice were given normal drinking water for 14 days. The KPV-treated group received 100 μM KPV in their drinking water along with the DSS during both DSS cycles.
H&E Staining of Colonic Tissue: Mouse colons were fixed in 10%-buffered formalin for 24 hours at room temperature and then embedded in paraffin. Tissues were sectioned at 5-μm thickness and stained with hematoxylin & eosin (H&E) using standard protocols. Images were acquired using an Olympus microscope equipped with a DP-23 digital camera.
Immunohistochemistry: Mouse colonic tissues were fixed in formalin and paraffin-embedded. For Ki67, β-catenin and PepT1 staining, sections were deparaffinized. Slides were incubated in sodium citrate buffer (pH 6.0) and cooked in a pressure cooker for 10 minutes for antigen retrieval. Sections were then blocked with 5% goat serum in TBS followed by incubation for one hour with anti-Ki67 (1:100, Vector Laboratories, Burlingame, Calif.), anti-β-catenin (1:1000, Cell Signaling, Danvers, Mass.) or anti-mPepT1 at 37° C. After washing with TBS, sections were treated with appropriate biotinylated secondary antibodies for 30 minutes at 37° C., and color development was performed using the Vectastain ABC kit (Vector Laboratories). Sections were then counterstained with hematoxylin, dehydrated, and then coverslipped. Images were acquired using an Olympus microscope equipped with DP-23 Digital camera. Ki67-positive cells were counted per crypt.
Therefore, we hypothesized that KPV may help prevent colon tumorigenesis in the AOM/DSS-induced CAC model. To test this hypothesis, WT mice were treated with AOM/DSS or AOM/DSS+KPV (during the DSS cycles). […] In order to investigate any putative protective effect of KPV administration in pepT1-KO mice, the colitis-associated cancer protocol was slightly modified based on the relatively low penetrance of the disease in pepT1-deficient animals (FIG. 3). AOM concentration was increased to 15 mg/kg and DSS was increased to 3% in order to favor tumor development. […] Upregulation of colonic PepT1 may lead to increased interactions between bacterial peptides and intracellular innate immune receptors, including NOD receptors, thus triggering downstream activation of proinflammatory signaling pathways (Dalmasso et. al., Gastroenterology 141:1334-45, 2011; Laroui et al., J. Biol. Chem. 286:31003-13, 2011). Furthermore, previous studies have shown that bacteria are required for the initiation of colonic inflammation and subsequent dysplasia and tumorigenesis (Itzkowitz and Yio, Am. J. Physiol. Gastrointest. Liver Physiol. 287:G7-17, 2004). […]

[3] = tested on: AOM/DSS-induced colon tumorigenesis in PepT1-KO mice; test: AOM/DSS-induced colitis-associated cancer model, PepT1-KO mice, with or without KPV; assay type: in vivo, mouse; settings: AOM 15 mg/kg, 3% DSS, + KPV vs AOM/DSS only
Description: as §1, §2
Therefore, we hypothesized that KPV may help prevent colon tumorigenesis in the AOM/DSS-induced CAC model. To test this hypothesis, WT mice were treated with AOM/DSS or AOM/DSS+KPV (during the DSS cycles). […] In order to investigate any putative protective effect of KPV administration in pepT1-KO mice, the colitis-associated cancer protocol was slightly modified based on the relatively low penetrance of the disease in pepT1-deficient animals (FIG. 3). AOM concentration was increased to 15 mg/kg and DSS was increased to 3% in order to favor tumor development. […] Upregulation of colonic PepT1 may lead to increased interactions between bacterial peptides and intracellular innate immune receptors, including NOD receptors, thus triggering downstream activation of proinflammatory signaling pathways (Dalmasso et. al., Gastroenterology 141:1334-45, 2011; Laroui et al., J. Biol. Chem. 286:31003-13, 2011). Furthermore, previous studies have shown that bacteria are required for the initiation of colonic inflammation and subsequent dysplasia and tumorigenesis (Itzkowitz and Yio, Am. J. Physiol. Gastrointest. Liver Physiol. 287:G7-17, 2004). Future studies are warranted to assess the role of PepT1-bacterial interactions in these processes, and whether such interactions contribute to the progression of CAC.

PepT1 = biological target: T1, PepT1 (Homo sapiens, UniProt P46059); settings: in vitro, Caco-2/BBE cells; cited from earlier work
T1 construct: endogenous in cells; host or cells: Caco-2/BBE cells
T1 sequence (P46059 1-708): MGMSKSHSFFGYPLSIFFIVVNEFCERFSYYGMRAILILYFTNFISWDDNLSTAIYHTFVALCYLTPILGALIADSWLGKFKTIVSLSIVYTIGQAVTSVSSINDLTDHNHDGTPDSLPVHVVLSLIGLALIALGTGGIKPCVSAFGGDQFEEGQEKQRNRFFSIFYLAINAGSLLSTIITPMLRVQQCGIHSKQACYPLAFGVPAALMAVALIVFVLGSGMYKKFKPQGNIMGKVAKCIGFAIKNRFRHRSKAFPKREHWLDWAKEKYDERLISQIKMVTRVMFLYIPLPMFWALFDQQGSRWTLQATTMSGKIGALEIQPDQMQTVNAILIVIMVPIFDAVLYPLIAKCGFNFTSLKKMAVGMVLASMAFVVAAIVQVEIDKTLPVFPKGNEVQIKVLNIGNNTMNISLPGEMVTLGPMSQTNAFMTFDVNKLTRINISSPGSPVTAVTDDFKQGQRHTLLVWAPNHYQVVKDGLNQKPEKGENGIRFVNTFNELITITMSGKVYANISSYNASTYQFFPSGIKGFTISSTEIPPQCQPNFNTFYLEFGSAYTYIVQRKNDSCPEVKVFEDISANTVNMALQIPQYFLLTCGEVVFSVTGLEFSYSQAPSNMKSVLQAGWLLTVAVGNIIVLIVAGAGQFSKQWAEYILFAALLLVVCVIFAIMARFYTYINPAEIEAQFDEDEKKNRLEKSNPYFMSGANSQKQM

[4] = tested on: Caco2-BBE and Jurkat cells; settings: stimulation with pro-inflammatory cytokines, co-treated with KPV; cited from earlier work
DSS-induced colitis = settings: previous studies; cited from earlier work
tumor growth = settings: several studies; cited from earlier work
colon adenocarcinoma = settings: cited from earlier work
[5] = tested on: myeloid leukemia C1498 cells; settings: in vivo; cited from earlier work
[6] = tested on: tumorigenesis in IL-10-deficient mice; settings: even after colitis had developed; cited from earlier work
[7] = AOM/DSS + 100 μM KPV in drinking water during both DSS cycles vs AOM/DSS only
[8] = AOM/DSS + 100 μM KPV vs AOM/DSS only

## Lactobacillus plantarum
[1]
  PepT1 expression and activity: reduced PepT1 expression and activity
  colitis: attenuated colitis

## Lys-Pro-Val [KPV]
[2]; [7]
  colon tumorigenesis: overall colonic tumor burden: drastic decreases
  colon tumorigenesis: tumor numbers: drastic decreases
  colon tumorigenesis: tumor sizes: drastic decreases
[2]; [8]
  aberrant crypt foci (H&E-stained colonic sections): fewer aberrant crypt foci
  body weight loss during DSS treatment: lost similar amounts of weight
  cellular infiltration (H&E-stained colonic sections): decreased cellular infiltration
  epithelial cell proliferation (Ki67+ cells/crypt): less epithelial cell proliferation
  inflammation (H&E-stained colonic sections): decreased inflammation
[3]
  protection from tumorigenesis: not protected from tumorigenesis
  tumor burden: remained unchanged
  tumor numbers: remained unchanged
  tumor sizes: remained unchanged
PepT1
  transport via PepT1: transported via PepT1
[4]
  NF-κB activation: attenuated NF-κB activation
  pro-inflammatory cytokine production: decreased pro-inflammatory cytokine production
DSS-induced colitis
  inflammation and DSS-induced colitis: decreases inflammation and attenuates DSS-induced colitis

## CC(C)C[C@H](NC(=O)[C@@H](O)[C@H](N)Cc1ccccc1)C(=O)O [bestatin]
Tumor growth
  cell proliferation: decreases cell proliferation
  tumor growth: ameliorates tumor growth
Colon adenocarcinoma
  growth of colon adenocarcinoma: inhibits the growth of colon adenocarcinoma
[5]
  growth of myeloid leukemia C1498 cells: decreases the growth

B1: IL-10: exogenous anti-inflammatory cytokine IL-10 administered to IL-10-deficient mice (protein, UniProt P18893 19-178, looked up)
Interleukin-10: SRGQYSREDNNCTHFPVGQSHMLLELRTAFSQVKTFFQTKDQLDNILLTDSLMQDFKGYLGCQALSEMIQFYLVEVMPQAEKHGPEIKEHLNSLGEKLKTLRMRLRRCHRFLPCENKSKAVEQVKSDFNKLQDQGVYKAMNEFDIFINCIEAYMMIKMKS
[6]
  tumorigenesis: tumorigenesis was decreased
